Values of other authors in publication PMC3530844 (ACS medicinal chemistry letters, 2012).

Tests used:
hD2 receptors = hD2 receptors (Homo sapiens, UniProt P14416); conditions: [35S]GTPγS; ref Ghosh et al., J. Med. Chem. 2010, 53, 2114-2125
hD3 receptors = hD3 receptors (Homo sapiens, UniProt P35462); conditions: [35S]GTPγS; ref Ghosh et al., J. Med. Chem. 2010, 53, 2114-2125
Chain of hD3 receptors (P35462 whole entry): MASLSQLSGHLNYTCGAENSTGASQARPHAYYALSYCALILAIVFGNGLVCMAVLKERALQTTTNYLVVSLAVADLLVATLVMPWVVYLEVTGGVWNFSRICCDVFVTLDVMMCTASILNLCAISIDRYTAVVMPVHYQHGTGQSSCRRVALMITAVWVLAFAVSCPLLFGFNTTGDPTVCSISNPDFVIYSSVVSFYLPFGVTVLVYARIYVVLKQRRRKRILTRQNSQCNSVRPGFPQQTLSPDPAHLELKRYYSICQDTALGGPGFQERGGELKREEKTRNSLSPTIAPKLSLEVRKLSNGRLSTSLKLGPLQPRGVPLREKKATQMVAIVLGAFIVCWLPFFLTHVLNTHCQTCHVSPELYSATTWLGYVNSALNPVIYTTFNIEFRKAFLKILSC

Chain of hD2 receptors (P14416 whole entry): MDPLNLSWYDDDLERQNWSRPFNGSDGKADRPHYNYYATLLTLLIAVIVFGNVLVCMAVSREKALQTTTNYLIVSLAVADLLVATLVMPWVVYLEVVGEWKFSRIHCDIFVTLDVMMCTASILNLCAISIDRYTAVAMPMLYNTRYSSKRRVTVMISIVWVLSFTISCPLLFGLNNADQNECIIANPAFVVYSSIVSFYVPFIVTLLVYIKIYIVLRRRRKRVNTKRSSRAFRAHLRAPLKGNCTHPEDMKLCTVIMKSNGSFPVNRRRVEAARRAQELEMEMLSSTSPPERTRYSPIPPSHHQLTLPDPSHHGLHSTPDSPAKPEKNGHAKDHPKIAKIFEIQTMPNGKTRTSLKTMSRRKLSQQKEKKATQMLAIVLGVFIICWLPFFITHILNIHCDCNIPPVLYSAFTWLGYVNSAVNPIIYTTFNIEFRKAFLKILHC

CCCN(CCC)CCc1cccc2c1CC(=O)N2 [Ropinirole]
%Emax hCHO-D2 (hD2 receptors): 74 ± 0.9% | %Emax hCHO-D3 (hD3 receptors): 67 ± 8%
